The values that follow come from patent US20090105305A1, “Therapeutic Agents - 550” (AstraZeneca AB, priority 2006, published 2009).

As usually defined, the inhibition is the change of the read-out against control, counted positive when it falls. High values mean a strong effect, low ones a weak effect.

Each structure is given as a SMILES string.

For the first test, the target named is T1, human Fatty Acid Synthase (Homo sapiens, UniProt P49327).
T1 construct: made in house
T1 sequence (P49327 whole entry): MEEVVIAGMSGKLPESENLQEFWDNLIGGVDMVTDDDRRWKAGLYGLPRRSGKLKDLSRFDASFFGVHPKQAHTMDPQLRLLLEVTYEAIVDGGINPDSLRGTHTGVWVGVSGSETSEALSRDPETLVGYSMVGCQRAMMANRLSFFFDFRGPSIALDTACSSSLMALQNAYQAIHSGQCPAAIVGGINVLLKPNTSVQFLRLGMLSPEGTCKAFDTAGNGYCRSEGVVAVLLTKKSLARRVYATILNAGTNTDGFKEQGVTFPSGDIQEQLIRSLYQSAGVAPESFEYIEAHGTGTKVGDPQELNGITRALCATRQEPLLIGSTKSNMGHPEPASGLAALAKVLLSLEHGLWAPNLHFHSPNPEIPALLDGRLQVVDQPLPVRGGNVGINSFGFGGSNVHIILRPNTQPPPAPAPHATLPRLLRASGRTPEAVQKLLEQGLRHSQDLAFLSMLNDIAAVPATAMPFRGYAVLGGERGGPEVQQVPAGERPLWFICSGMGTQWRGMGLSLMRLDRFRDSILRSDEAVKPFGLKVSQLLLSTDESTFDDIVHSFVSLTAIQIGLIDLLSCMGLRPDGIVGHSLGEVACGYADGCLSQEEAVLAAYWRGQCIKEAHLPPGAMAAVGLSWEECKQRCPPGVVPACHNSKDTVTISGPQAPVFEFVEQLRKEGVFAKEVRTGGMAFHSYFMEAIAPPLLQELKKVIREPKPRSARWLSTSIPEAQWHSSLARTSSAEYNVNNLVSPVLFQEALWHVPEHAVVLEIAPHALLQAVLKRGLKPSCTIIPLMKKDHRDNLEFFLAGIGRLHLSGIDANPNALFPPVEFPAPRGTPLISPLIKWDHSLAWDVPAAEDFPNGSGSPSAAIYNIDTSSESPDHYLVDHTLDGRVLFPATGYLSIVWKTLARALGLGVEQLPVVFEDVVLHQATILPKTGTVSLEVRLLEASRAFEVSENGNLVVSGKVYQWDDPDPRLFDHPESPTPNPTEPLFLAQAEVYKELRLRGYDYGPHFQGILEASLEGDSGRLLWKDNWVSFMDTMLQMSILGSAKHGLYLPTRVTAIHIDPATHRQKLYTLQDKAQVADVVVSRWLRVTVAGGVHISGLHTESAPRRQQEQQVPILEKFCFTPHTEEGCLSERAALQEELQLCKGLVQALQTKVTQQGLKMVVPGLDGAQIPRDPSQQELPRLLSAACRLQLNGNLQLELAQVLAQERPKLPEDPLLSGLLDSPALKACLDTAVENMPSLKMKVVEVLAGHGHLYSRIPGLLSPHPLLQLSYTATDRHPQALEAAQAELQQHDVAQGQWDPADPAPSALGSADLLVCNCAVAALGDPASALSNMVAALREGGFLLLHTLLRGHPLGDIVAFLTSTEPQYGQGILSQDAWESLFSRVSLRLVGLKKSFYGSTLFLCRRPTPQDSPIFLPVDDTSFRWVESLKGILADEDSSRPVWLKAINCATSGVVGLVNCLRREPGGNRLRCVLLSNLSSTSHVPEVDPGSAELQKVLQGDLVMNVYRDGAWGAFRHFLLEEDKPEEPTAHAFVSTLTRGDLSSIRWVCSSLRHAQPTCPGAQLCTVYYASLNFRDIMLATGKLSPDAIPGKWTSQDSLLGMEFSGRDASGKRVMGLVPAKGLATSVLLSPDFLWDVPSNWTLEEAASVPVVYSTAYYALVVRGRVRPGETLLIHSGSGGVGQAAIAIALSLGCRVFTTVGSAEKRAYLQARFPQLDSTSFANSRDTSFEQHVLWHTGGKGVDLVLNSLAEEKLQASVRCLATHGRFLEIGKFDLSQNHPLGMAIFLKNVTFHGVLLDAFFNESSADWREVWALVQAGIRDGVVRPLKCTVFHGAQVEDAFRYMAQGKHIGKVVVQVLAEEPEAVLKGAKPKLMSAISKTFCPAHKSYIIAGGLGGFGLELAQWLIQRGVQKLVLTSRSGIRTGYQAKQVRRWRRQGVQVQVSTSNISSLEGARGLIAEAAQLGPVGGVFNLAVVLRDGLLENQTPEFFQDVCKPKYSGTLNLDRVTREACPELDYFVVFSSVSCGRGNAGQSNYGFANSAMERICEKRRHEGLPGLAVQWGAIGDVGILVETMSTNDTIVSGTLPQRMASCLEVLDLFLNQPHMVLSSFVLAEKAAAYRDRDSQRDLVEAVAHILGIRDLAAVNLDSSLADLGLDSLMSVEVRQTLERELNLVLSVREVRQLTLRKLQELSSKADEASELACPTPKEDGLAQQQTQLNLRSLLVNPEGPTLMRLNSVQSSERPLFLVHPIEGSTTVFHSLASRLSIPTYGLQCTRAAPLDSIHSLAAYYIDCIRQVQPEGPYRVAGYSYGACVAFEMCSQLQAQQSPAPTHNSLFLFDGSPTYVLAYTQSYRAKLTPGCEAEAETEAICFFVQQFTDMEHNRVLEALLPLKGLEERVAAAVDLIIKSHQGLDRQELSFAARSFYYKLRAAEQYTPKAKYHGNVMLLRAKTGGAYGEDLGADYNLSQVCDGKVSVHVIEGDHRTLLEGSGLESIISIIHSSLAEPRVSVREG
Briefly: Human FAS enzyme assay (decrease in NADPH fluorescence). Format: biochemical. Particulars: % inhibition at a concentration of 100 micromolar. An outline of the steps: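 In-house human FAS (0.4 μg) was preincubated 15 min at RT with compound and NADPH (added at 166.6 μM) in 0.1 M Tris pH 7.5, 1 mM glutathione, 0.05% BSA. Malonyl-/acetyl-CoA (500/150 μM in substrate mix) was then added for 60 min. Readout was NADPH fluorescence loss (ex 340/em 460) over a time-zero read, with IC50 from a sigmoid fit.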
`COCc1ccc(C(=O)N2CCC(c3ccc(C#N)cc3)CC2)cc1NS(C)(=O)=O` [Example 161, N-[5-[4-(4-cyanophenyl)piperidine-1-carbonyl]-2-(methoxymethyl)phenyl]methanesulfonamide]: 100 µM produced 80% inhibition. The same measure, in the same setting: in the case of `COc1ccc(NS(=O)(=O)Cc2ccccc2)cc1C(=O)N1CCC(c2ccc(C#N)cc2)CC1` [Example 31, N-[3-[4-(4-cyanophenyl)piperidine-1-carbonyl]-4-methoxy-phenyl]-1-phenyl-methanesulfonamide] it was 83%; in that of `COC(=O)c1ccccc1S(=O)(=O)Nc1cc(C(=O)N2CCC(c3ccc(C#N)cc3)CC2)ccc1C` [Example 108, methyl 2-[[5-[4-(4-cyanophenyl)piperidine-1-carbonyl]-2-methyl-phenyl]sulfamoyl]benzoate], 78%; in that of `Cc1ccc(C(=O)N2CCC(c3ccc(C#N)cc3)CC2)cc1NS(=O)(=O)CC(=O)N1CCOCC1` [Example 88, N-[5-[4-(4-cyanophenyl)piperidine-1-carbonyl]-2-methyl-phenyl]-2-morpholin-4-yl-2-oxo-ethanesulfonamide], 89%. `Cc1ccc(C(=O)N2CCC(c3ccc(C#N)cc3)CC2)cc1NS(=O)(=O)CCN1C(=O)c2ccccc2C1=O` [Example 71, N-[5-[4-(4-cyanophenyl)piperidine-1-carbonyl]-2-methyl-phenyl]-2-(1,3-dioxoisoindol-2-yl)ethanesulfonamide] yielded an inhibition at 100 µM of 100%.

`CC(=O)NCCCS(=O)(=O)Nc1cc(C(=O)N2CCC(c3ccc(C#N)cc3)CC2)ccc1C` [Example 136, N-[3-[[5-[4-(4-cyanophenyl)piperidine-1-carbonyl]-2-methyl-phenyl]sulfamoyl]propyl]acetamide]: testing at 100 µM gave an inhibition of 94%.

`CSc1ccc(C(=O)N2CCC(c3ccc(C#N)cc3)CC2)cc1NS(C)(=O)=O` [Example 159, N-[5-[4-(4-cyanophenyl)piperidine-1-carbonyl]-2-methylsulfanylphenyl]methanesulfonamide] showed an inhibition at 100 µM of 80%. On to `N#Cc1ccc(C2CCN(C(=O)c3cccc(NS(=O)(=O)Cc4ccccc4)c3)CC2)cc1` [Example 66, N-[3-[4-(4-cyanophenyl)piperidine-1-carbonyl]phenyl]-1-phenyl-methanesulfonamide], for which testing at 100 µM gave an inhibition of 80%. As for `Cc1cc(C)c(C(=O)N2CCC(c3ccc(C#N)cc3)CC2)cc1NS(=O)(=O)C1CC1` [Example 116, N-[5-[4-(4-cyanophenyl)piperidine-1-carbonyl]-2,4-dimethyl-phenyl]cyclopropanesulfonamide], the inhibition at 100 µM was found to be 92%.

Staying with this test, now noted: compounds excluded from the claims by proviso.
Regarding `Cc1ccc(C(=O)N2CCC(c3ccc(CN)cc3)CC2)cc1NS(C)(=O)=O` [N-[5-[4-[4-(aminomethyl)phenyl]piperidine-1-carbonyl]-2-methylphenyl]methanesulfonamide], the “IC50s in the range of about 0.001 μM to about 30 μM” value is “do not have IC50s in the range of about 0.001 μM to about 30 μM”. The same measure, in the same setting: as for `Cc1ccc(C(=O)N2CCC(c3ccc(CC(=O)O)cc3)CC2)cc1NS(C)(=O)=O` [2-[4-[1-(3-methanesulfonamido-4-methylbenzoyl)piperidin-4-yl]phenyl]acetic acid], the entry is “do not have IC50s in the range of about 0.001 μM to about 30 μM”; as for `Cc1ccc(C(=O)N2CCC(c3ccc(S(=O)(=O)N4CCN(C)CC4)cc3)CC2)cc1NS(C)(=O)=O` [N-[2-methyl-5-[4-[4-(4-methylpiperazin-1-yl)sulfonylphenyl]piperidine-1-carbonyl]phenyl]methanesulfonamide], “do not have IC50s in the range of about 0.001 μM to about 30 μM”; as for `Cc1ccc(C(=O)N2CCC(c3ccc(C#N)cc3)CC2)cc1NS(=O)(=O)c1ccccc1C(=O)O` [2-[[5-[4-(4-cyanophenyl)piperidine-1-carbonyl]-2-methylphenyl]sulfamoyl]benzoic acid], “do not have IC50s in the range of about 0.001 μM to about 30 μM”.
